We go through 2 substances from patent US20180141991A1, “METHODS AND POLYPEPTIDES FOR MODULATION OF IMMUNORESPONSE” (Mackay Medical Foundation The Presbyterian Church In Taiwan …, priority 2015, published 2018).

One experiment concerns PD-L1 on monocytes. Briefly: Surface expression of PD-L1 on primed monocytes, flow cytometry. In kind it is cell-based, human. The note with it: polypeptide 10 μg/mL, 24 hours, MFI relative to medium control (FIG. 3B). The method, then: (§1) (A) Monocytes were incubated with rsTLT-1 (10 μg/mL) for 3 days. At the indicated time point, the cells were harvested and the HLA-DR and PD-L1 molecules were analyzed using flow cytometry. […] (B) Monocytes were cultured with different concentrations of rsTLT-1 for 2 days. The cells were then harvested and the HLA-DR and PD-L1 molecules were analyzed using flow cytometry. Surface molecule expression is presented as the mean fluorescence intensity (MFI) relative to each day that the cells were treated with the control medium (dashed line). Values are presented as mean±SEM from 3 independent experiments.
(A) depicts structural characteristics of extracellular domain of TLT-1 and designed TLT-1 polypeptides. […] The cells were then harvested and the PD-L1 molecules were analyzed using flow cytometry. Surface molecule expression is presented as the MFI relative to each day that the cells were treated with the medium control (dashed line).
White blood cell concentrates from healthy volunteers were obtained from the Taiwan Blood Service Foundation (Taipei, Taiwan). Written informed consent was obtained for participation in the study, which was approved by the Institutional Review Board of the MacKay Memorial Hospital. Human monocytes were isolated as previously described. […]
A general note: Flow cytometry measures light scatter and fluorescence of single cells or particles in a stream.

The test system of another experiment is HLA-DR on monocytes. The experiment can be described thus: Surface expression of HLA-DR on primed monocytes, flow cytometry. The class given is cell-based, human. The note with it: polypeptide 10 μg/ml, 48 hours of incubation (FIG. 4). The method, then: as §1
Monocytes were cultured with 10 μg/ml TLT-1 15-63 polypeptide and 10 μg/ml rsTLT-1 for 2 days. The cells were then harvested and the HLA-DR molecules were analyzed using flow cytometry. Surface molecule expression is presented as the MFI relative to each day that the cells were treated with the medium control (dashed line).
White blood cell concentrates from healthy volunteers were obtained from the Taiwan Blood Service Foundation (Taipei, Taiwan). Written informed consent was obtained for participation in the study, which was approved by the Institutional Review Board of the MacKay Memorial Hospital. Human monocytes were isolated as previously described. In brief, peripheral blood mononuclear cells (PBMCs) were isolated using Ficoll-Paque Plus (GE Healthcare) gradient centrifugation. […]

As to “TLT-1 15-63: GQGIVGSLPEVLQAPVGSSILVQCHYRLQDVKAQKVWCRFLPEGCQPLV (SEQ ID NO: 7; same sequence as SEQ ID NO: 2) (Polypeptide name TLT-1 15-63)”, the “PD-L1 surface expression on monocytes” value in the experiment with PD-L1 on monocytes was “significantly increased”. Moreover, the “HLA-DR surface expression on monocytes” value in the experiment on HLA-DR on monocytes was “decreased”.

Take “TLT-1 34-63: ILVQCHYRLQDVKAQKVWCRFLPEGCQPLV (SEQ ID NO: 9; same sequence as SEQ ID NO: 1) (Polypeptide name TLT-1 34-63)”: the “PD-L1 surface expression on monocytes” value in the experiment on PD-L1 on monocytes was “induced PD-L1 expression”.
